Source: patent US10011596B2, “2-amino-3-fluoro-3-(fluoromethyl)-6-methyl-6-phenyl-3,4,5,6-tetrahydropyridines as BACE1 inhibitors” (H. Lundbeck A/S, priority 2015, dated 2018)
Read-outs that look alike come from different tables or passages of the source.

How the values were obtained:
[1] = Bioanalysis of brain and plasma samples (exposure, UPLC-MS/MS); format: in vivo, rat; conditions: male, Sprague Dawley, po, 3 hours post dose; for Kp at 3 h: brain/plasma, rat, read-out: Brain/Plasma ratio
Procedure: Young adult Male Sprague Dawley rats of approximately 250 g weight were purchased from Charles River and received 0-30 mg/kg of vehicle (10% HP betaCD+1M MeSO4, pH 2.5) or test compounds (dissolved in vehicle) only by oral gavage (p.o). The compounds are dosed at a volume of 5 ml/kg. Cohorts of 5-10 animals were established for each treatment condition.
At T=180 minutes after initial dosing the animals were stunned and decapitated with a guillotine. Trunk-blood was sampled in EDTA coated tubes after decapitation of the animal. The blood was centrifuged at 2200 G at 4° C. for 15 minutes and the plasma was collected and frozen at −80° C. The blood was aliquoted for Aβ ELISA and pharmacokinetic analysis. Immediately following sacrifice, the brain was extracted and split into 2 halves. The right hemibrains were snap frozen on dry ice and stored at −80° C. The left half was dissected; with the front forebrain taken for Aβ ELISA and the remainder used for DMPK analysis. These samples were also snap frozen on dry ice and stored at −80° C. until use for analysis.
TC (test compound) was determined in plasma and brain homogenate using UltraPerformance LC® (U PLC®) chromatography followed by tandem-MS (MS/MS) detection.
Brain homogenate was prepared by homogenizing the brain 1:4 (v/v) with water:2-propanol:DMSO (50:30:20 v/v/v) followed by centrifugation and collection of the supernatant. Calibration standards and QC samples were prepared using a Hamilton robot. 150 μL of ISTD in acetonitrile (1 ng/mL ISTD) was added to 25 μL of calibration standards, QC samples and test samples (plasma and brain homogenate) using a Biomek robot. After centrifugation (6200 g, 4° C., 20 min) 100 μL supernatant from each sample was transferred to a new plate and mixed with 100 μL water with 0.1% formic acid using a Biomek robot (method file InVivo transfer). After a quick centrifugation (6200 g, 4° C., 5 min) the samples were placed in the auto-sampler.
MS/MS detection was done with an Applied Biosystems Sciex API 4000 instrument in positive-ion electrospray ionisation mode. TC and ISDD were detected at a parent>daughter mass to charge ratio (m/z). Nitrogen was used for the nebulizer and collision gases. The peak area correlated linearly with the plasma and brain concentration of the analytes in the range of 1.00-1000 ng/mL plasma and 5.00-5000 ng/g brain (corrected for dilution). If the plasma/brain sample drug concentration was above 1000 ng/mL or 5000 ng/g, the sample was diluted appropriately in blank plasma/blank brain homogenate before analysis.
Compound 1 was administered at doses of 10 mg/kg p.o. and 30 mg/kg p.o. and brain and plasma samples were collected at 3 hours post dose and the following exposures were measured as described above.

P-gp (MDR1) = assay: MDCK-MDR1 assay (permeability, efflux ratio); format: in vitro ADME; conditions: dog
Procedure: The permeability of the test compounds was assessed in MDCK-MDR1 cells that were cultured to confluency (4-6 days) in a 96 transwell plate. Test compounds were diluted with the transport buffer (HBSS+1% BSA) to a concentration of 0.5 μM and applied to the apical or basolateral side of the cell monolayer. Permeation of the test compounds from A to B direction or B to A direction was determined in triplicate over a 60-minute incubation time at 37° C. and 5% CO2 with a relative humidity of 95%. Test compounds were quantified by LC-MS/MS analysis based on the peaks area ratios of analyte/IS in both the receiver and donor wells of the transwell plate.
The apparent permeability coefficient Papp (cm/s) was calculated using the equation: Papp=(dCr/dt)×Vr/(A×C0)
Where dCr/dt is the cumulative concentration of compound in the receiver chamber as a function of time (μM/s); Vr is the solution volume in the receiver chamber (0.05 mL on the apical side; 0.25 mL on the basolateral side); A is the surface area for the transport, i.e. 0.0804 cm^2 for the area of the monolayer; C0 is the initial concentration in the donor chamber (μM).

human BACE1 [2] = target: T1, human BACE1 (Homo sapiens, UniProt P56817); assay: BACE1 efficacy assay (FRET-based, commercial BACE1 kit); format: biochemical; set-up: purchased Life Technologies P2985; conditions: test compound at 10 μM
T1 sequence (P56817 46-501): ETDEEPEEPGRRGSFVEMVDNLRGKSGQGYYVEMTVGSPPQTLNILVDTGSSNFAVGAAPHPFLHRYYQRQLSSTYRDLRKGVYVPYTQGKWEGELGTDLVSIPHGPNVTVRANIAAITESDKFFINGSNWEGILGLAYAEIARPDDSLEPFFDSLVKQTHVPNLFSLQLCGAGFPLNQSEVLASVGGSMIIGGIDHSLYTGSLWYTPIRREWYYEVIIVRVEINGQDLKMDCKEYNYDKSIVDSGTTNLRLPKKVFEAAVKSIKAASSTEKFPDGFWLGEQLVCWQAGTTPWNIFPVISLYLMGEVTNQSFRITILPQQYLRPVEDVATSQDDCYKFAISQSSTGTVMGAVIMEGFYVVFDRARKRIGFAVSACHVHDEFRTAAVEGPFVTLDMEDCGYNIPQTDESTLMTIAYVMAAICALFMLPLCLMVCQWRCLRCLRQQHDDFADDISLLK
Procedure: The efficacy assay was performed as a FRET-based assay using a commercially available BACE1 kit (Life Technologies, P2985). 2 μl test compound at 10 μM (final concentration) and 15 μl BACE1 enzyme from the kit (final concentration 3 nM) were preincubated for 15 minutes at room temperature before addition of 15 μl of substrate from the kit (250 nM final concentration) and incubated for additional 90 minutes at room temperature. The assay plate was subsequently read in a Pherastar (Ex540/Em590).

human BACE1 [3] = target: T1, human BACE1; assay: BACE1 binding assay (SPA-based, radioligand displacement); set-up: biotin (biotinylated form); made in house; host or cells: Freestyle HEK293 cells; conditions: pH 4.5, 10 nM radioligand, 6 nM human BACE1, read-out: BACE1 binding affinity
Procedure: The binding assay was performed as SPA-based assay using a biotinylated form of human BACE1 recombinantly expressed and subsequently purified from Freestyle HEK293 cells. The binding assay was run in a 50 mM sodium acetate buffer, pH 4.5 containing 50 mM NaCl and 0.03% Tween-20 in white clear bottom 384 plates (Corning #3653). 10 nM (final concentration) radioligand ([^3H]-N-((1S,2R)-1-benzyl-3-cyclopropylamino-2-hydroxy-propyl)-5-(methanesulfonyl-methyl-amino)-N-((R)-1-phenyl-ethyl)-isophthalamide) (TRQ11569 purchased from GE Healthcare) was mixed with test compound at a given concentration, 6 nM (final concentration) human BACE1 and 25 μg Streptavidin coated PVT core SPA beads (RPNQ0007, GE Healthcare Life Sciences) in a total volume of 40 μl. Several concentrations of each test compound were tested in the assay for IC50 determination. The plates were incubated for one hour at room temperature and counted in a WaIlac Trilux counter. […] For each test compound, a IC50 value (the concentration mediating 50% inhibition of the specific binding of the radioligand) was determined from concentration-response curve and used to calculate the Ki from the equation Ki=IC50/(1+L/Kd), where L and Kd are the final concentration of the radioligand used in the assay and the dissociation constant of the radioligand, respectively. The Kd of the radioligand was determined from saturation binding experiments.

[4] = rat brain, 10 mg/kg p.o., read-out: Exp (ng/g), brain
[5] = rat brain, 30 mg/kg p.o., read-out: Exp (ng/g), brain
[6] = rat plasma, 10 mg/kg p.o., read-out: Exp (ng/g), plasma
[7] = rat plasma, 30 mg/kg p.o., read-out: Exp (ng/g), plasma

Row | Kp at 3 h ([1]; 10 mg/kg p.o.) | Kp at 3 h ([1]; 30 mg/kg p.o.) | concentration at 3 h [1, 4] | concentration at 3 h [1, 5] | concentration at 3 h [1, 6] | concentration at 3 h [1, 7] | efflux ratio at 60 min, 0.5 µM (P-gp (MDR1)) | inhibition at 10 µM (human BACE1 [2]) | Ki (human BACE1 [3]) | Structure (SMILES)
1 | 1.25 | 1.59 | 588 ng/g | 1590 ng/g | 469 ng/g | 1000 ng/g | 1.5 | 100% | 40 nM | C[C@@]1(c2cc(NC(=O)c3ccc(F)cn3)ccc2F)CC[C@@](F)(CF)C(N)=N1 [Compound 13, N-(3-((2S,5S)-6-Amino-5-fluoro-5-(fluoromethyl)-2-methyl-2,3,4,5-tetrahydropyridin-2-yl)-4-fluorophenyl)-5-fluoropicolinamide]
2 | 1.95 | 2.74 | 536 ng/g | 1610 ng/g | 275 ng/g | 587 ng/g | 1.07 | 103% | 24 nM | COc1cnc(C(=O)Nc2ccc(F)c([C@]3(C)CC[C@@](F)(CF)C(N)=N3)c2)cn1 [Compound 5, N-(3-((2S,5S)-6-Amino-5-fluoro-5-(fluoromethyl)-2-methyl-2,3,4,5-tetrahydropyridin-2-yl)-4-fluorophenyl)-5-methoxypyrazine-2-carboxamide]
3 | 2.1 | 2.3 | 416 ng/g | 1350 ng/g | 195 ng/g | 590 ng/g | 1.89 | 103% | 55 nM | C[C@@]1(c2cc(NC(=O)c3cnc(C(F)F)cn3)ccc2F)CC[C@@](F)(CF)C(N)=N1 [Compound 11]
